Results: ChEMBL document CHEMBL4834431, “Design of Dimeric Bile Acid Derivatives as Potent and Selective Human NTCP Inhibitors” (J Med Chem, 2021)

System: Hepatitis B virus
Assay: Antiviral activity against HBV infected in human HepG2-NTCP cells assessed as reduction in HBeAg secretion incubated for 24 hrs followed replacement with fresh medium and measured at day 5 post infection by ELISA
Type: functional, organism-based

Row | SMILES | IC50 [nM]
1 | C[C@H](CCC(=O)NCCS(=O)(=O)O)[C@H]1CC[C@H]2[C@@H]3[C@@H](O)C[C@@H]4CC(NC(=O)CC(=O)NC5CC[C@@]6(C)[C@@H](C5)C[C@H](O)[C@@H]5[C@@H]6CC[C@]6(C)[C@@H]([C@H](C)CCC(=O)NCCS(=O)(=O)O)CC[C@@H]56)CC[C@]4(C)[C@H]3CC[C@]12C (stereo not given in full) | 3570
2 | C[C@H](CCC(=O)NCCS(=O)(=O)O)[C@H]1CC[C@H]2[C@@H]3[C@H](O)C[C@@H]4C[C@H](OC(=O)CCCC(=O)O[C@@H]5CC[C@@]6(C)[C@@H](C5)C[C@@H](O)[C@@H]5[C@@H]6CC[C@]6(C)[C@@H]([C@H](C)CCC(=O)NCCS(=O)(=O)O)CC[C@@H]56)CC[C@]4(C)[C@H]3CC[C@]12C | 187
3 | C[C@H](CCCOC(=O)CC[C@@H](C)[C@H]1CC[C@H]2[C@@H]3[C@@H](O)C[C@@H]4C[C@H](O)CC[C@]4(C)[C@H]3CC[C@]12C)[C@H]1CC[C@H]2[C@@H]3[C@@H](O)C[C@@H]4C[C@H](O)CC[C@]4(C)[C@H]3CC[C@]12C | 2700
4 | C[C@H](CCC(=O)NCCS(=O)(=O)O)[C@H]1CC[C@H]2[C@@H]3[C@@H](O)C[C@@H]4C[C@H](NCCCCCN[C@@H]5CC[C@@]6(C)[C@@H](C5)C[C@H](O)[C@@H]5[C@@H]6CC[C@]6(C)[C@@H]([C@H](C)CCC(=O)NCCS(=O)(=O)O)CC[C@@H]56)CC[C@]4(C)[C@H]3CC[C@]12C | 9650
5 | C[C@H](CCC(=O)NCCS(=O)(=O)O)[C@H]1CC[C@H]2[C@@H]3CC[C@@H]4C[C@H](OC(=O)CCCC(=O)O[C@@H]5CC[C@@]6(C)[C@H](CC[C@@H]7[C@@H]6CC[C@]6(C)[C@@H]([C@H](C)CCC(=O)NCCS(=O)(=O)O)CC[C@@H]76)C5)CC[C@]4(C)[C@H]3CC[C@]12C | 3240
6 | C[C@H](CCc1cn([C@@H]2CC[C@@]3(C)[C@@H](C2)C[C@H](O)[C@@H]2[C@@H]3CC[C@]3(C)[C@@H]([C@H](C)CCC(=O)O)CC[C@@H]23)nn1)[C@H]1CC[C@H]2[C@@H]3[C@@H](O)C[C@@H]4C[C@H](O)CC[C@]4(C)[C@H]3CC[C@]12C | 25
7 | C[C@H](CCC(=O)NCCS(=O)(=O)O)[C@H]1CC[C@H]2[C@@H]3[C@@H](O)C[C@@H]4CC(NC(=O)CCCC(=O)NC5CC[C@@]6(C)[C@@H](C5)C[C@H](O)[C@@H]5[C@@H]6CC[C@]6(C)[C@@H]([C@H](C)CCC(=O)NCCS(=O)(=O)O)CC[C@@H]56)CC[C@]4(C)[C@H]3CC[C@]12C (stereo not given in full) | 41
8 | C[C@@H]1CCC(=O)NCCCNC(=O)CC[C@@H](C)[C@H]2CC[C@H]3[C@@H]4[C@@H](O)C[C@@H]5C[C@@H](CC[C@]5(C)[C@H]4CC[C@]23C)NC(=O)CCCC(=O)N[C@@H]2CC[C@@]3(C)[C@@H](C2)C[C@H](O)[C@@H]2[C@@H]3CC[C@]3(C)[C@@H]1CC[C@@H]23 | 564
9 | C[C@H](CCC(=O)NCCS(=O)(=O)O)[C@H]1CC[C@H]2[C@@H]3[C@@H](O)C[C@@H]4CC(O)(C5(O)CC[C@@]6(C)[C@H](C[C@H](O)[C@@H]7[C@@H]6CC[C@]6(C)[C@@H]([C@H](C)CCC(=O)NCCS(=O)(=O)O)CC[C@@H]76)C5)CC[C@]4(C)[C@H]3CC[C@]12C (stereo not given in full) | > 10000
10 | C[C@H](CCC(=O)NCCS(=O)(=O)O)[C@H]1CC[C@H]2[C@@H]3[C@@H](O)C[C@@H]4C[C@H](OCC#CC#CCO[C@@H]5CC[C@@]6(C)[C@@H](C5)C[C@H](O)[C@@H]5[C@@H]6CC[C@]6(C)[C@@H]([C@H](C)CCC(=O)NCCS(=O)(=O)O)CC[C@@H]56)CC[C@]4(C)[C@H]3CC[C@]12C | 1870
